The record followed here is US10711011B2, “Substituted oxazolidines as anti-bacterial agents” (BUGWORKS RESEARCH, INC., priority 2016, dated 2020).

Values after ≈ are worked out from the molar mass of the structure shown.

For assay [1], the target named is E. coli DNA gyrase (Escherichia coli, UniProt P0AES4+P0AES6). The experiment in a line: biochemical. The conditions noted are these: supercoiling assay.
The test system of assay [2] is P. aurigenosa ATCC 27853. The experiment in a line: Minimum Inhibitory Concentration (MIC) in LB media. As to conditions: for MIC: Pseudomonas, ATCC27853, LB Media; for Minimum Inhibitory Concentration P. aurigenosa ATCC 27853: LB Media. It counts as cell-based, Pseudomonas aurigenosa. The source says: (§1) The compounds of Formula I are of interest due to their potent antibacterial effects. The ability of the invention compounds disclosed herein to achieve an antibacterial effect may be evaluated with regard to their ability to inhibit the growth of bacterial species like Escherichia coli ATCC 25922, Staphylococcus aureus ATCC 29213, Klebsiella pneumoniae ATCC 13883, Acinetobacter baumannii ATCC 19606, Pseudomonas aurigenosa ATCC 27853, Enterococcus faecalis ATCC 29212 and Enterococcus faecalis ATCC 29212 using an assay based on the following Minimum Inhibitory Concentration (MIC) protocol:
(§2) The test bacteria are grown in Luria Bertani Broth (HIMEDIA M1245), 25 grams of the powder is dissolved in 1000 ml distilled water and sterilized by autoclaving at 15 lbs pressure (121° C.) for 20 minutes. The medium sterility is checked by incubating at 37° C. for a period of 48 h.
(§3) Bacterial cultures that are stored as glycerol stocks at −80° C. are sub cultured on LB agar plates to obtain isolated colonies. A single colony of each strain is cultured in LB broth. The cultures are incubated at 37° C., 200 rpm till they reach an optical density (OD at 600 nm) of 0.8 to 1. […] Test compounds are dissolved in dimethyl sulfoxide (DMSO) to a stock concentration of 4 mg/ml. A twofold dilution series of this DMSO stock is prepared in a 96 well V bottom microtitre plate from rows A to H. A 3 μL volume of these dilutions are transferred to a 96-well flat bottom microtitre assay plate. Controls to monitor the effects of DMSO and media sterility are included. Each well is inoculated with 150 μL of the above diluted culture. The plates are incubated at 37° C. overnight in a humidified incubator. The following morning, the plates are read using a Spectrophotometer at 600 nm wavelength. […] The antibacterial activity (MIC) determined against representative Gram positive (S. aureus, E. faecalis) and Gram negative (E. coli, P. aurigenosa, K. pneumoniae and A. baumannii) pathogen were reported Table 1.

The target of assay [3] is E. coli topoisomerase IV (Escherichia coli, UniProt P0AFI2+P20083). Put plainly: biochemical. As to conditions: decatenation assay; read-out: E. coli Topo IV IC50.
Assay [4] relates to E. coli ATCC 25922. The experiment in a line: Minimum Inhibitory Concentration (MIC) in LB media. As to conditions: for MIC: Escherichia coli, ATCC25922, LB Media; for Minimum Inhibitory Concentration E. coli ATCC 25922: LB Media. The format is cell-based, Escherichia coli.
Source text: as §1, §2, §3

Assay [5] has as its system K. pneumoniae ATCC 13883. Put plainly: Minimum Inhibitory Concentration (MIC) in LB media. It counts as cell-based, Klebsiella pneumoniae. The conditions noted are these: for MIC: Klebsiella pneumoniae, ATCC13883, LB Media; for Minimum Inhibitory Concentration K. pneumoniae ATCC 13883: LB Media.
Source text: as §1, §2, §3

In assay [6] the test system is A. baumannii ATCC 19606. The experiment in a line: Minimum Inhibitory Concentration (MIC) in LB media. It counts as cell-based, Acinetobacter baumannii. As to conditions: for MIC: Acinetobacter baumannii, ATCC19606, LB Media; for Minimum Inhibitory Concentration A. baumannii ATCC 19606: LB Media.
Source text: as §1, §2, §3

Assay [7] has as its system E. faecalis ATCC 29212. The experiment in a line: Minimum Inhibitory Concentration (MIC) in LB media. As to conditions: for MIC: Enterococcus faecalis, ATCC29212. It counts as cell-based, Enterococcus faecalis.
Source text: as §1, §2, §3

For assay [8], the system named is S. aureus ATCC 29213. Put plainly: Minimum Inhibitory Concentration (MIC) in LB media. The conditions noted are these: for MIC: Staphylococcus aureus, ATCC29213, LB Media; for Minimum Inhibitory Concentration S. aureus ATCC 29213: LB Media. It counts as cell-based, Staphylococcus aureus.
Source text: as §1, §2, §3

Assay [9] deals with A. baumannii (Aba) clinical strains. The experiment in a line: MIC50 and MIC90 studies using clinical strains (CLSI guidelines). It counts as cell-based.
In assay [10] the test system is P. aurigenosa (Pae) clinical strains. The assay is described as above. It counts as cell-based.
Assay [11] concerns K. pneumoniae (Kpn) clinical strains. Described as above. The format is cell-based.
The subject of assay [12] is E. coli clinical strains. Described as above. The format is cell-based.
Where [13] appears, read: Acinetobacter baumannii, Aba, 169 strains.
Setting [14] is: Klebsiella pneumoniae, Kpn, 211 strains.
Where [15] appears, read: Escherichia coli, E. coli, 201 strains.

E. coli topoisomerase IV, sequence (P0AFI2 whole entry): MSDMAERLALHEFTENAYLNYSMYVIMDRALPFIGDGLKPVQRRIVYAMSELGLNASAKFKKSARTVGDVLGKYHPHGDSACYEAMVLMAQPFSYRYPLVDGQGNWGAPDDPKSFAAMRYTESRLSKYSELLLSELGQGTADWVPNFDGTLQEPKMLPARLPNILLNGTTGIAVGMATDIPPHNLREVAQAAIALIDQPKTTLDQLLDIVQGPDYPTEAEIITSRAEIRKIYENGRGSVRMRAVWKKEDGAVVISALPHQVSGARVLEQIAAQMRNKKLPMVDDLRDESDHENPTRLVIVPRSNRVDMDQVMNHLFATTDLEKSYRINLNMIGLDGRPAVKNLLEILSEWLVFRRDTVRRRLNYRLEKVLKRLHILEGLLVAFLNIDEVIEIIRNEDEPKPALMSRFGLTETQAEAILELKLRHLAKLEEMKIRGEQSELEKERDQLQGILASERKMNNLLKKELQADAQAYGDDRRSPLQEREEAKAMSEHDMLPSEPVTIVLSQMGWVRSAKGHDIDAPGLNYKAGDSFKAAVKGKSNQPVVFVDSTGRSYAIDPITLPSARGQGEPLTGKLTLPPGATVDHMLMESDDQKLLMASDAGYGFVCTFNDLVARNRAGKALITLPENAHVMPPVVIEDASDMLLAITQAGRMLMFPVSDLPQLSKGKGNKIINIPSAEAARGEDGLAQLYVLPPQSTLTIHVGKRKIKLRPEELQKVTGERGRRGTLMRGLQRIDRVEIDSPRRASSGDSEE
E. coli topoisomerase IV, sequence (P20083 whole entry): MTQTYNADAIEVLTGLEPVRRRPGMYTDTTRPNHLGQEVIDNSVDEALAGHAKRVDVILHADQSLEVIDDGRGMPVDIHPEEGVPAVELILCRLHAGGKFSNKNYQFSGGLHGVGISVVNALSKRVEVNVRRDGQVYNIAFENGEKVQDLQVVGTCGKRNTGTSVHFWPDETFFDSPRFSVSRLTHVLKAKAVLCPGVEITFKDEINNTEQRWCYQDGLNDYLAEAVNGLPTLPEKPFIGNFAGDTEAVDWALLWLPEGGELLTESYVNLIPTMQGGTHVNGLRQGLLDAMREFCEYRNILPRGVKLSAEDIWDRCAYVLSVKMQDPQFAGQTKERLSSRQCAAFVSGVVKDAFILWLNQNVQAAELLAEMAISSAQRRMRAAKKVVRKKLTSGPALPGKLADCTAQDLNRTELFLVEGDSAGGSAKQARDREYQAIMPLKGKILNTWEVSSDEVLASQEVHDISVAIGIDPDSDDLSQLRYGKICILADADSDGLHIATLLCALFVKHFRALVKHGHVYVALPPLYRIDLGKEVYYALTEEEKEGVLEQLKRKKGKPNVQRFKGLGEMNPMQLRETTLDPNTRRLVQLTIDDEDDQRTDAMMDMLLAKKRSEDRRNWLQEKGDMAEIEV
E. coli DNA gyrase, sequence (P0AES4 whole entry, one chain of several): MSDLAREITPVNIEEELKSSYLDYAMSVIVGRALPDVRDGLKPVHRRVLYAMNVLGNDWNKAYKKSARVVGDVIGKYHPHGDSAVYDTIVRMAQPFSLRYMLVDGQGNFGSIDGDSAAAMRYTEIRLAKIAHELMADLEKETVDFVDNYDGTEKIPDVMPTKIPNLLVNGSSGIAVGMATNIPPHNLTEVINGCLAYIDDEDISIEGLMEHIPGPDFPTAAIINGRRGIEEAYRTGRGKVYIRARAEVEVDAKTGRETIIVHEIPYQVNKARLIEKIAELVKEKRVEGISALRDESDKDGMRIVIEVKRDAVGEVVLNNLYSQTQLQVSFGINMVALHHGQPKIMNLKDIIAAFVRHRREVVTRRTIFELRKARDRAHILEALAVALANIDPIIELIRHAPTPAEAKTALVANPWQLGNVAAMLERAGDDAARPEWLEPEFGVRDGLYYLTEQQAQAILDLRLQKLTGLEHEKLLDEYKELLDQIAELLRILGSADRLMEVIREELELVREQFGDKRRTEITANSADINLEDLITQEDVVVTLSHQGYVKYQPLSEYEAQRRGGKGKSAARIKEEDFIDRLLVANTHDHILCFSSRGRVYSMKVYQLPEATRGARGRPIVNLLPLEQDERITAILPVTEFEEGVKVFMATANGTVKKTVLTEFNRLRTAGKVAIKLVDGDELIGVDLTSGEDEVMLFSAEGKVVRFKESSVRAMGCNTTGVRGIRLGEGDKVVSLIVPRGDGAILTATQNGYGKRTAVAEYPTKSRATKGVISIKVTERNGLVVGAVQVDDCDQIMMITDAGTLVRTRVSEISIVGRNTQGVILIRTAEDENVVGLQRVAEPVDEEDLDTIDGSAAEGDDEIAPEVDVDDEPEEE

What is called IC50 is the concentration at which inhibition is half-maximal. A word on the MIC: it is the least concentration at which growth counts as inhibited. Higher therefore signals a need for much substance. Regarding `CN1C(=O)Cc2ccc(F)c(CNCCCC3CN(c4ccc5c(c4)NC(=O)CO5)C(=O)O3)c21` (centres unmarked) [Example 12, 6-(5-(3-(((6-fluoro-1-methyl-2-oxoindolin-7-yl)methyl)amino)propyl)-2-oxooxazolidin-3-yl)-2H-benzo[b][1,4]oxazin-3(4H)-one], the half-inhibitory concentration (IC50) in assay [1] is 89 nM; in [3], 600 nM. In addition, the minimal inhibitory concentration (MIC) in assay [2] is 2 µg/mL (≈ 4.27 µM); in assay [4], 0.25 µg/mL (≈ 0.534 µM); in assay [5], 0.5 µg/mL (≈ 1.07 µM); in assay [6], 0.13 µg/mL (≈ 0.277 µM); in [7] it was 0.5 µg/mL (≈ 1.07 µM); in [8], 0.25 µg/mL (≈ 0.534 µM).

In the case of `CCN1C(=O)Cc2ccc(F)c(CNCCCC3CN(c4ccc5c(n4)NC(=O)CO5)C(=O)O3)c21` (centres unmarked) [Example 8, 6-(5-(3-(((1-Ethyl-6-fluoro-2-oxoindolin-7-yl)methyl)amino)propyl)-2-oxooxazolidin-3-yl)-2H-pyrido[3,2-b][1,4]oxazin-3(4H)-one], the half-inhibitory concentration (IC50) is 54 nM in [1] and 362 nM in assay [3]. The minimum inhibitory concentration (MIC) is 2.5 µg/mL (≈ 5.17 µM) in [2]; 0.15 µg/mL (≈ 0.31 µM) in assay [4]; 0.3 µg/mL (≈ 0.62 µM) in assay [5]; 0.15 µg/mL (≈ 0.31 µM) in assay [6]; 0.15 µg/mL (≈ 0.31 µM) in assay [7]; 0.07 µg/mL (≈ 0.145 µM) in assay [8].

Regarding `CN1C(=O)Cc2ccc(F)c(CNCCCC3CN(c4ccc5c(n4)NC(=O)CO5)C(=O)O3)c21` (racemic) [Example 6, 6-(5-(3-(((6-fluoro-1-methyl-2-oxoindolin-7-yl)methyl)amino)propyl)-2-oxooxazolidin-3-yl)-2H-pyrido[3,2-b][1,4]oxazin-3(4H)-one], the 50% inhibitory concentration (IC50) in assay [1] stood at 56 nM; in [3], 459 nM. In addition, the MIC in assay [2] was found to be 1 µg/mL (≈ 2.13 µM); in [4] it was 0.25 µg/mL (≈ 0.533 µM); in assay [5] it was 0.5 µg/mL (≈ 1.07 µM); in assay [6], 0.25 µg/mL (≈ 0.533 µM); in assay [7] it was 0.5 µg/mL (≈ 1.07 µM); in assay [8], 0.13 µg/mL (≈ 0.277 µM).

Turning to `CN1C(=O)Cc2ccc(F)c(CNCCCC3CN(c4ccc5c(n4)NC(=O)CO5)C(=O)O3)c21` (single isomer, unassigned) [Example 10, 6-(5-(3-(((6-fluoro-1-methyl-2-oxoindolin-7-yl)methyl)amino)propyl)-2-oxooxazolidin-3-yl)-2H-pyrido[3,2-b][1,4]oxazin-3(4H)-one], the half-maximal inhibitory concentration (IC50) in assay [1] was 106 nM; in [3], 398 nM. Further, the “Minimum Inhibitory Concentration P. aurigenosa ATCC 27853” value in [2] worked out at 1 µg/mL. For the same compound, the “Minimum Inhibitory Concentration E. coli ATCC 25922” value in assay [4] was 0.125 µg/mL. Also, in [5], the “Minimum Inhibitory Concentration K. pneumoniae ATCC 13883” value was 0.25 µg/mL. In assay [6], the “Minimum Inhibitory Concentration A. baumannii ATCC 19606” value turned out to be 0.06 µg/mL. In assay [7], the “Minimum Inhibitory Concentration E. faecalis ATCC 29212” value turned out to be 0.5 µg/mL. The “Minimum Inhibitory Concentration S. aureus ATCC 29213” value in assay [8] was found to be 0.06 µg/mL.

The term MIC50 denotes the lowest concentration that inhibits either 50% of growth or 50% of the strains tested, depending on the study. Low readings indicate greater potency, high ones weaker potency. A word on the MIC90: it is an inhibitory concentration at the 90% level, which refers to growth in some studies and to a panel of isolates in others. Lower therefore signals greater potency. Turning to `CN1C(=O)Cc2ccc(F)c(CCNCCC3CN(c4ccc5c(n4)NC(=O)CO5)C(=O)O3)c21` (single isomer, unassigned) [Example 14, 6-(5-(2-((2-(6-fluoro-1-methyl-2-oxoindolin-7-yl)ethyl)amino)ethyl)-2-oxooxazolidin-3-yl)-2H-pyrido[3,2-b][1,4]oxazin-3(4H)-one], the half-inhibitory concentration (IC50) in assay [1] came out at 100 nM; in assay [3], 36 nM. Moreover, the MIC ATCC19606 in assay [9] (Aba reference strain ATCC19606, unit inferred) worked out at 0.06 µg/mL (≈ 0.128 µM). The “Minimum (MIC)” value in assay [9] (Aba, 169 strains, unit not given, in µg/mL) was found to be 0.015; in assay [10] (Pae, 215 strains, unit not given, in µg/mL), 0.03125; in assay [11] (Kpn, 211 strains, unit inferred) it was 0.06 µg/mL; in assay [12] (E. coli, 201 strains, unit inferred), 0.03 µg/mL. Moreover, the MIC50 in assay [9] (setting [13]) came to 0.25 µg/mL (≈ 0.533 µM); in assay [10] (Pae, 215 strains), 0.5 µg/mL (≈ 1.07 µM); in assay [11] (setting [14]), 1 µg/mL (≈ 2.13 µM); in [12] (setting [15]), 0.25 µg/mL (≈ 0.533 µM). The MIC90 in assay [9] (setting [13]) was determined as 0.5 µg/mL (≈ 1.07 µM); in assay [10] (Pae, 215 strains), 1 µg/mL (≈ 2.13 µM); in assay [11] (setting [14]) it was 4 µg/mL (≈ 8.52 µM); in assay [12] (setting [15]), 0.5 µg/mL (≈ 1.07 µM). Further, the “Minimum Inhibitory Concentration P. aurigenosa ATCC 27853” value in assay [2] worked out at 0.5 µg/mL. The MIC ATCC27853 in assay [10] (Pae reference strain ATCC27853, unit inferred) came out at 0.5 µg/mL (≈ 1.07 µM). Also, the “Minimum Inhibitory Concentration E. coli ATCC 25922” value in assay [4] came out at 0.03 µg/mL. The compound further returned an MIC ATCC13883 in assay [11] (Kpn reference strain ATCC13883, unit inferred) of 0.25 µg/mL (≈ 0.533 µM). For the same compound, the “Minimum Inhibitory Concentration K. pneumoniae ATCC 13883” value in [5] came to 0.125 µg/mL. Further, in assay [12] (E. coli reference strain ATCC25922, no unit in this row (MIC50/MIC90 rows: μg/ml)), the MIC ATCC25922 stood at 0.06 µg/mL (≈ 0.128 µM). Besides, the “Minimum Inhibitory Concentration A. baumannii ATCC 19606” value in assay [6] is 0.03 µg/mL. Further, the “Minimum Inhibitory Concentration E. faecalis ATCC 29212” value in [7] came out at 0.25 µg/mL. In [8], the “Minimum Inhibitory Concentration S. aureus ATCC 29213” value stood at 0.03 µg/mL.
